Key:
[1] = test system: lettuce plants (Lactuca sativa L.) var. Sant'Anna; assay: Application of the iodine formulation by root application (hydroponic nutritive solution), iodine content by optical emission spectrometry; type: in vivo; settings: 36 μg I/L of nutritive solution, harvested after 15 days, lettuce aerial part
Procedure: (§1) The seeds of the selected species were germinated within germination trays filled with a growth substrate composed by vernalized black peat and blond sphagnum peat (Agrofino Professional) and placed in a growth chamber.
(§2) The germinated seedlings were grown until the 2nd real leaf stage. Later, the growth substrate portion wherein the roots were confined was extracted and a gentle washing was carried out in order to remove the whole substrate and thus obtain a free root seedling ready to be placed in hydroponics, for the test of root application. The plants were transplanted in 0.35 L pots for the foliar application test.
The plants were grown in recipients containing 5 L of nutritive solution added with iodine salts obtained according to Example 1, or with the nutritive solution added with the formulation object of the patent. In both treatments, the applied iodine amount was the same: 36 μg I/L of nutritive solution. The plants were then grown in controlled conditions in a growth chamber: • 07.00-12.00: T 24° C., RH 60%, Light Int. 300 μmol/m^2/s; • 12.00-16.00: T 25° C., RH 60%, Light Int. 400 μmol/m^2/s; • 16.00-20.00: T 24° C., RH 60%, Light Int. 300 μmol/m^2/s; • 20.00-07.00: T 23° C., RH 60%, Light Int. 0 μmol/m^2/s.
After 15 days the plants were harvested and the aerial part was weighted. Each plant was washed with deionized water and dried in oven at 105° C. overnight. […]

[2] = test system: lettuce plants (Lactuca sativa L.) var. Sant'Anna; assay: Application of the iodine formulation by foliar application (foliar spray), iodine content by optical emission spectrometry; type: in vivo; settings: foliar spray at transplantation and after 7 days, 30 μg iodine/plant, harvested after 15 days, lettuce aerial part
Procedure: as §1, §2
The plants were grown for 15 days in 0.35 L pots, containing universal topsoil based on vernalized black peat and blond sphagnum, in controlled conditions in a growth chamber: • 07.00-12.00: T 24° C., RH (Relative humidity) 60%, Light Int. 300 μmol/m^2/s; • 12.00-16.00: T 25° C., RH 60%, Light Int. 400 μmol/m^2/s; • 16.00-20.00: T 24° C., RH r 60%, Light Int. 300 μmol/m^2/s; • 20.00-07.00: T 23° C., RH 60%, Light Int. 0 μmol/m^2/s.
The formulations (iodine salts and formulation object of the invention) were applied during transplantation and after 7 days, by foliar spray, delivering 5 ml of applicative solution according to Example 1 to each plant. In both treatments, the applied iodine amount was the same: 30 μg/plant. […]

**Q.** Which iodine absorption efficiency [1] does the source give for `[I-].[K+]` [KI salt, potassium iodide] here?
**A.** The iodine absorption efficiency was 46%.

**Q.** What about the “iodine content in the food” value [1] of the same compound?
**A.** The value was 55 μg/100 g fresh weight.

**Q.** And the iodine absorption efficiency [2]?
**A.** The iodine absorption efficiency was 40%.

**Q.** What about the “iodine content in the food” value [2] of the same compound?
**A.** Its value is 36 μg/100 g fresh weight.
